Test results published in patent US20080065002A1, “Catheter for Localized Drug Delivery and/or Electrical Stimulation” (NEUROSYSTEC CORPORATION, priority 2006, published 2008).

Test: Expected decomposition of gacyclidine in solution
Type: physicochemical
Settings: 72 hours at 37° C.
Procedure: The compatibility of gacyclidine in Ringer's Lactate (pH 6.0) in PTFE tubing at room temperature and at 37° C. was evaluated. Three sets of six segments each of PTFE tubing were used. Six samples were collected at each of three time intervals (6 hr, 23 hr and 72 hr). For each set of samples collected, three were incubated at ambient temperature and three were incubated at 37° C. A 16.5 ft. long segment of PTFE tubing (0.010″ ID, 0.018″ OD) was filled with 100 μM gacyclidine in Ringer's Lactate solution (pH 6.0) by use of a glass syringe. The two ends of the tubing were sealed with a paraffin wax vapor barrier. After incubating at room temperature or 37° C. for a specified time, the solution was pumped directly into a glass HPLC autosampler vial insert using an air-filled syringe. The PTFE tubing drug loss in 72 hours at room temperature was 1.3% and at 37° C. was 7.9%. […] The expected amount of decomposition expected in 72 hours at 37° C. is 8.0%.

For `CC1CCCCC1(c1cccs1)N1CCCCC1` (stereo not shown) [gacyclidine], the “expected amount of decomposition” value was 8.0%.
